Consider 8 compounds from PubChem BioAssay AID330 (DTP/NCI, 2004).

This assay deals with P388 leukemia ip, CD2F1 mice, survival T/C. Put plainly: NCI In Vivo Anticancer Drug Screen. Data for tumor model P388 Leukemia (intraperitoneal) in CD2F1 (CDF1) mice. Conditions: endpoint: median survival time, higher = longer survival. In short, it runs like this:
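Mice carrying the transplanted tumor received test compound or vehicle. Survival was recorded in each group, and the value is the treated-group measurement divided by that of the vehicle-treated control group.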

The mark [1] stands for this setting: dose: 25.0 mg/kg/injection, schedule: Q01DX001 (ip), vehicle: saline.
The mark [2] stands for this setting: dose: 25.0 mg/kg/injection, schedule: Q01DX009 (ip), vehicle: saline.
Setting [3] is: dose: 50.0 mg/kg/injection, schedule: Q01DX005 (ip), vehicle: Klucel (hydroxypropylcellulose) (HPC).
[4] abbreviates: dose: 100.0 mg/kg/injection, schedule: Q01DX005 (ip), vehicle: Klucel (hydroxypropylcellulose) (HPC).
Where [5] appears, read: dose: 200.0 mg/kg/injection, schedule: Q01DX005 (ip), vehicle: Klucel (hydroxypropylcellulose) (HPC).

“And” between values parts separate entries of the source, which are not always exact repeats. Identical values can stand only once. Toxic doses and inconclusive results are not listed.

`O=C(O)C1(C(=O)O)CCC1.[NH2-].[NH2-].[Pt+2]`: the T/C (dose: 6.25 mg/kg/injection, schedule: Q01DX005 (ip), vehicle: water) was 152 % of control; the T/C (dose: 6.25 mg/kg/injection, schedule: Q01DX009 (ip), vehicle: water) was 167 % of control; the T/C (dose: 12.5 mg/kg/injection, schedule: Q01DX001 (im), vehicle: suspension in saline) is 105 % of control; the T/C (dose: 12.5 mg/kg/injection, schedule: Q01DX001 (ip), vehicle: suspension in saline) is 117 % of control; the T/C (dose: 12.5 mg/kg/injection, schedule: Q01DX001 (iv), vehicle: suspension in saline) is 108 % of control; the T/C (dose: 12.5 mg/kg/injection, schedule: Q01DX001 (sc), vehicle: suspension in saline) is 103 % of control. For the same compound, the T/C was 166 % of control (dose: 12.5 mg/kg/injection, schedule: Q01DX005 (ip), vehicle: water); 113 % of control (dose: 12.5 mg/kg/injection, schedule: Q01DX009 (ip), vehicle: saline); 189 % of control (dose: 12.5 mg/kg/injection, schedule: Q01DX009 (ip), vehicle: water); 110 % of control (dose: 12.5 mg/kg/injection, schedule: Q04DX003 (iv), vehicle: saline); 117 % of control (dose: 25.0 mg/kg/injection, schedule: Q01DX001 (im), vehicle: suspension in saline); 107 % of control under setting [1]. The T/C by setting is: (dose: 25.0 mg/kg/injection, schedule: Q01DX001 (ip), vehicle: suspension in saline) 121 % of control; (dose: 25.0 mg/kg/injection, schedule: Q01DX001 (iv), vehicle: suspension in saline) 106 % of control; (dose: 25.0 mg/kg/injection, schedule: Q01DX001 (oral), vehicle: suspension in saline) 100 % of control; (dose: 25.0 mg/kg/injection, schedule: Q01DX001 (sc), vehicle: suspension in saline) 107 % of control; (dose: 25.0 mg/kg/injection, schedule: Q01DX005 (ip), vehicle: water) 194 % of control; (dose: 25.0 mg/kg/injection, schedule: Q01DX005 (iv), vehicle: water) 90 % of control. Besides, the T/C runs as follows: under setting [2], 152 % of control; (dose: 25.0 mg/kg/injection, schedule: Q01DX009 (ip), vehicle: water) 112 % of control; (dose: 25.0 mg/kg/injection, schedule: Q04DX003 (ip), vehicle: saline) 114 % of control; (dose: 25.0 mg/kg/injection, schedule: Q04DX003 (ip), vehicle: water) 186 % of control; (dose: 25.0 mg/kg/injection, schedule: Q04DX003 (iv), vehicle: saline) 113 % of control; (dose: 50.0 mg/kg/injection, schedule: Q01DX001 (im), vehicle: suspension in saline) 110 % of control. In addition, the T/C was 124 % of control (dose: 50.0 mg/kg/injection, schedule: Q01DX001 (ip), vehicle: suspension in saline); 161 % of control (dose: 50.0 mg/kg/injection, schedule: Q01DX001 (ip), vehicle: water); 110 % of control (dose: 50.0 mg/kg/injection, schedule: Q01DX001 (iv), vehicle: suspension in saline); 103 % of control (dose: 50.0 mg/kg/injection, schedule: Q01DX001 (oral), vehicle: suspension in saline); 110 % of control (dose: 50.0 mg/kg/injection, schedule: Q01DX001 (sc), vehicle: suspension in saline); 100 % of control (dose: 50.0 mg/kg/injection, schedule: Q01DX009 (ip), vehicle: saline). Moreover, the T/C by setting is: (dose: 50.0 mg/kg/injection, schedule: Q04DX003 (ip), vehicle: water) 217 % of control; (dose: 50.0 mg/kg/injection, schedule: Q04DX003 (iv), vehicle: saline) 117 % of control; (dose: 50.0 mg/kg/injection, schedule: Q04DX003 (oral), vehicle: saline) 116 % of control; (dose: 100.0 mg/kg/injection, schedule: Q01DX001 (im), vehicle: suspension in saline) 111 % of control; (dose: 100.0 mg/kg/injection, schedule: Q01DX001 (ip), vehicle: water) 164 % of control; (dose: 100.0 mg/kg/injection, schedule: Q01DX001 (iv), vehicle: saline) 105 % of control. Also, the T/C (dose: 100.0 mg/kg/injection, schedule: Q01DX001 (iv), vehicle: suspension in saline) is 115 % of control; the T/C (dose: 100.0 mg/kg/injection, schedule: Q01DX001 (iv), vehicle: water) was 93 % of control; the T/C (dose: 100.0 mg/kg/injection, schedule: Q01DX001 (sc), vehicle: suspension in saline) was 120 % of control; the T/C (dose: 100.0 mg/kg/injection, schedule: Q04DX003 (ip), vehicle: saline) was 170 % of control; the T/C (dose: 100.0 mg/kg/injection, schedule: Q04DX003 (ip), vehicle: water) is 96 % of control; the T/C (dose: 100.0 mg/kg/injection, schedule: Q04DX003 (iv), vehicle: saline) is 123 % of control. Also, the T/C (dose: 100.0 mg/kg/injection, schedule: Q04DX003 (oral), vehicle: saline) was 114 % of control; the T/C (dose: 200.0 mg/kg/injection, schedule: Q01DX001 (im), vehicle: suspension in saline) is 105 % of control; the T/C (dose: 200.0 mg/kg/injection, schedule: Q01DX001 (iv), vehicle: suspension in saline) was 100 % of control; the T/C (dose: 200.0 mg/kg/injection, schedule: Q01DX001 (oral), vehicle: saline) is 104 % of control; the T/C (dose: 200.0 mg/kg/injection, schedule: Q01DX001 (oral), vehicle: suspension in saline) was 110 % of control; the T/C (dose: 200.0 mg/kg/injection, schedule: Q01DX001 (sc), vehicle: suspension in saline) was 107 % of control. For the same compound, the T/C was 117 % of control (dose: 200.0 mg/kg/injection, schedule: Q04DX003 (oral), vehicle: saline); 91 % of control (dose: 400.0 mg/kg/injection, schedule: Q01DX001 (iv), vehicle: saline); 100 % of control (dose: 400.0 mg/kg/injection, schedule: Q01DX001 (oral), vehicle: saline); 101 % of control (dose: 400.0 mg/kg/injection, schedule: Q01DX001 (oral), vehicle: suspension in saline); 122 % of control (dose: 400.0 mg/kg/injection, schedule: Q04DX003 (oral), vehicle: saline).
`Cc1ccc(C=C2c3ccccc3C(=O)c3ccccc32)cc1`: the T/C by setting is: under setting [3], 108 % of control; under setting [4], 107 % of control; under setting [5], 105 % of control.
Regarding `c1ccc2c(c1)C[n+]1ccc3ccccc3c1-c1c3ccccc3cc[n+]1C2`, the T/C is 100 % of control (dose: 12.5 mg/kg/injection, schedule: Q01DX001 (ip), vehicle: saline) and 107 % of control under setting [1].
Take `O=S(=O)(O)O.[Co+3].[Co+3].[NH2-].[NH2-].[NH2-].[NH2-].[NH2-].[NH2-].[NH2-].[NH2-].[NH2-].[NH2-].[O-][O-]`: under setting [2], the T/C was 96 % of control.
Take `CCC12C=CCN3CC[C@@]4(c5cc([C@@]6(C(=O)OC)C[C@@H]7CN(CCc8c6[nH]c6ccccc86)C[C@](O)(CC)C7)c(OC)cc5N(C)[C@H]4[C@@](O)(C(=O)NCCCCCCCCCCCC(=O)O)[C@@H]1O)C32` (some centres not stated): the T/C (dose: 11.25 mg/kg/injection, schedule: Q01DX001 (ip), vehicle: other) was 164 % of control; the T/C (dose: 11.25 mg/kg/injection, schedule: Q01DX001 (ip), vehicle: saline with Tween-80) is 153 % of control; the T/C (dose: 11.25 mg/kg/injection, schedule: Q01DX001 (ip), vehicle: saline) was 189 % of control; the T/C (dose: 22.5 mg/kg/injection, schedule: Q01DX001 (ip), vehicle: saline with Tween-80) is 164 % of control; the T/C (dose: 45.0 mg/kg/injection, schedule: Q01DX001 (ip), vehicle: saline with Tween-80) was 182 % of control.
On to `CCN(CC)c1ccc(N=Nc2nc(Cl)c(/C=C3\C(=O)c4ccccc4C3=C(C#N)C#N)s2)c(NC(C)=O)c1`, for which the T/C reads like this: (dose: 60.0 mg/kg/injection, schedule: Q01DX005 (ip), vehicle: saline with Tween-80) 96 % of control; (dose: 120.0 mg/kg/injection, schedule: Q01DX005 (ip), vehicle: saline with Tween-80) 97 % of control; (dose: 240.0 mg/kg/injection, schedule: Q01DX005 (ip), vehicle: saline with Tween-80) 95 % of control.
Take `O=C(CSC1CCc2ccccc21)N/N=C/c1ccco1` (configuration not stated): the T/C by setting is: under setting [3], 98 % of control; under setting [4], 100 % of control; under setting [5], 88 % of control.
As to `CCN(CC)c1ccc2c(cc1=O)[C@@H](NC(C)=O)CCc1cc(OC)c(OC)c(OC)c1-2`, the T/C runs as follows: (dose: 0.39 mg/kg/injection, schedule: Q01DX009 (ip), vehicle: Klucel (hydroxypropylcellulose) (HPC)) 103 % of control and 107 % of control and 120 % of control; (dose: 3.13 mg/kg/injection, schedule: Q01DX009 (ip), vehicle: Klucel (hydroxypropylcellulose) (HPC)) 181 % of control.
